These results are taken from patent US10610520B2, “Heterocyclic compound” (Takeda Pharmaceutical Company Limited, priority 2016, dated 2020).

Series [1] has as its system intracerebral 2-AG and arachidonic acid. Put plainly: Measurement of intracerebral 2-AG and arachidonic acid concentrations after oral administration. Conditions: for 2-AG concentration / arachidonic acid concentration: cerebrum, male C57BL/6J mice, 3 mg/kg by gavage; for 2-AG concentration: control 9.9; for arachidonic acid concentration: control 163.5; for migration into brain: oral administration to C57BL/6J mice, 3 mg/kg. The class given is in vivo, C57BL/6J mice. The procedure: As the mouse, 8-week-old male C57BL/6J mice (CLEA Japan, Inc.) were used (6 mice/group). Administration solutions were prepared by suspending the test compounds (compound 1 (compound of Example 279), compound 2 (compound of Example 361) and compound 3 (compound of Example 362)) in 0.5% methylcellulose solution (Wako Pure Chemical Industries, Ltd.). The dose of the test compound was prepared to be 3 mg/kg body weight/10 mL. The test compounds were administered by gavage at 3 mg/kg body weight. The cerebrum was isolated after the administration of the test compound (isolation time after the administration of the test compound is shown in Table 3), and the cerebrum hemisphere was extracted. The obtained cerebrum hemisphere was frozen on dry ice, and the frozen tissue weight was measured.
The cerebral tissue weight was measured, and cerebral tissue was homogenized with 4-fold (v/w) of isopropanol (IPA), and double diluted with IPA. To the diluted sample (200 μL) was added internal standard solution (5 μL) ([5,6,8,9,11,12,14,15-D8]-(5Z,8Z,11Z,14Z)5,8,11,14-eicosatetraenoic acid (AA-d8, 0.5 nmol/mL IPA) and [5,6,8,9,11,12,14,15-D8]-(5Z,8Z,11Z,14Z)-5,8,11,14-eicosatetraenoyl-2-glycerol ester (2-AG-d3, 0.5 nmol/mL IPA)), and the mixture was centrifuged at 15000 rpm for 5 min. The supernatant was injected to liquid chromatography mass spectrometer to perform quantitative analysis.
For liquid chromatography, Shimadzu LC20A system (Shimadzu Corporation) was used. The separation was performed by gradient elution method with mobile phase A (10 mmol/L HCOONH4/HCOOH (100:0.2, v/v)) and mobile phase B (ethanol/IPA (3:2, v/v)) using Shim-pack XR-ODS (2.2 μm, 2.0×30 mm, Shimadzu Corporation) at column temperature of 50° C., at flow rate of 0.5 mL/min. The gradient conditions are as follows: 0-1 min, 1% B; 1-1.2 min, 1-55% B; 1.2-2.7 min, 55-75% B; 2.7-3.5 min, 75-99% B; 3.5-6 min, 99% B; 6-8 min, 1% B.
For mass spectrometer, API5000 (AB SCIEX) was used. The eluate from the liquid chromatography was directly ionized by turbospray ionization method, where (5Z,8Z,11Z,14Z)5,8,11,14-eicosatetraenoic acid (AA) and AA-d8 were measured by negative ionization mode, and (5Z,8Z,11Z,14Z)5,8,11,14-eicosatetraenoyl-2-glycerol ester (2-AG) and 2-AG-d3 were measured by positive ionization mode.
A solution for calibration curve was prepared to the concentration of 2, 5, 10, 20, 50, 100, 200, 500, 1000 nmol/mL of acetonitrile. These solutions (10 μL) was mixed with 200 μL of IPA and 5 μL of internal standard solution, and the mixture was centrifuged at 15000 rpm for 5 min, and the supernatant was injected to liquid chromatography mass spectrometer to perform analysis. The calibration curve was drawn by regression line with a weighting of 1/x^2, and the quantitativity was confirmed by accuracy of 100±20% and R^2>0.99.

Series [2] concerns the target T1, His-hMAGL (recombinant polyhistidine tagged human MAGL protein) (Homo sapiens, UniProt Q99685).
T1 construct: made in house; host or cells: E. coli BL21(DE3)
T1 sequence (Q99685 1-303): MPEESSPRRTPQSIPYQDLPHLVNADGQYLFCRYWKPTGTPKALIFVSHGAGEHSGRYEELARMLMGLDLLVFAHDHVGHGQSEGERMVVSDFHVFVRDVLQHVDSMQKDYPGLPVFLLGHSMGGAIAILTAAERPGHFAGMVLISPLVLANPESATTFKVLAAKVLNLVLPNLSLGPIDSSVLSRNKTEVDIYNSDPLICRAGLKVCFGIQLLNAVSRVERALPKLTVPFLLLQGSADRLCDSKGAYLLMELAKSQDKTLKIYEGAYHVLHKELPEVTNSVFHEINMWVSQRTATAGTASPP
In words: Measurement of MAGL inhibitory activity (arachidonic acid production from 2-arachidonylglycerol, RapidFire-mass spectrometry). Format: biochemical. Conditions: MAGL inhibitory rate, test compound 10 μM, 60 min preincubation, 2-arachidonylglycerol substrate. A digest of the protocol: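 Arachidonic acid formed was quantified by online solid-phase extraction and triple-quadrupole MS in negative SRM mode against a d8 internal standard. Reaction: recombinant His-hMAGL (7.5 ng/mL, pH 7.5 Tris buffer with Triton X-100 and BSA) plus 2-AG (5 μL of 150 μM stock) for 10 min at room temperature, quenched with 2% formic acid. Percent inhibition corrected for enzyme-free background.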

Where [3] appears, read: isolation 1 hour after administration.
Setting [4] is: isolation 2 hour after administration.

As usually defined, the inhibition is the drop in the measured response relative to a control, in per cent.

In the case of `O=C1NC2(CO1)CN(C(=O)c1sc3cc(F)cc(F)c3c1Cl)C2` [compound 3, 2-((3-chloro-4,6-difluoro-1-benzothiophen-2-yl)carbonyl)-7-oxa-2,5-diazaspiro[3.4]octan-6-one], in series [1] (setting [3]), the “2-AG concentration” value worked out at 25.7 nmol/g and the “arachidonic acid concentration” value is 156.1 nmol/g. Also, in series [1], the migration into brain result is “migrated into brain”.

`O=C1NC2(CO1)CN(C(=O)c1sc3c(F)c(OC(F)(F)F)ccc3c1Cl)C2` [compound 1, 2-((3-chloro-7-fluoro-6-(trifluoromethoxy)-1-benzothiophen-2-yl)carbonyl)-7-oxa-2,5-diazaspiro[3.4]octan-6-one]: in series [1] (setting [4]), the “2-AG concentration” value is given as 73.2 nmol/g and the “arachidonic acid concentration” value worked out at 109.4 nmol/g. Moreover, the migration into brain result in series [1] is reported as “migrated into brain”.

On to `O=C1NC2(CO1)CN(C(=O)c1sc3cc(F)ccc3c1Cl)C2` [compound 2, 2-((3-chloro-6-fluoro-1-benzothiophen-2-yl)carbonyl)-7-oxa-2,5-diazaspiro[3.4]octan-6-one], for which, in series [1] (setting [3]), the “2-AG concentration” value is 30.2 nmol/g and the “arachidonic acid concentration” value is 151.8 nmol/g. Moreover, the migration into brain entry in series [1] was “migrated into brain”.

For `Cc1c(OC(F)F)cc(F)c2c(Cl)c(C(=O)N3CC4(COC(=O)N4)C3)sc12` [Example 304, 2-((3-chloro-6-(difluoromethoxy)-4-fluoro-7-methyl-1-benzothiophen-2-yl)carbonyl)-7-oxa-2,5-diazaspiro[3.4]octan-6-one], the inhibition at 10 µM in series [2] stood at 100%.

`O=C1CCC2(CN(C(=O)N3CC(COc4ccc5c(c4)CCCC5)C3)C2)N1` [Example 18, 2-((3-((5,6,7,8-tetrahydronaphthalen-2-yloxy)methyl)azetidin-1-yl)carbonyl)-2,5-diazaspiro[3.4]octan-6-one]: in series [2], the inhibition at 10 µM is 100%.

In the case of `O=C1CCC2(CN(C(=O)c3cc4cc(-c5ccc(Cl)cc5)ccc4s3)C2)N1` [Example 150, 2-((5-(4-chlorophenyl)-1-benzothiophen-2-yl)carbonyl)-2,5-diazaspiro[3.4]octan-6-one], the inhibition at 10 µM in series [2] worked out at 83%.

Consider `O=C1CCC2(CN(C(=O)c3ccc(-c4ccc(C5(C(F)(F)F)CC5)cc4)cc3)C2)N1` [Example 63, 2-((4′-(1-(trifluoromethyl)cyclopropyl)biphenyl-4-yl)carbonyl)-2,5-diazaspiro[3.4]octan-6-one], for which, in series [2], the inhibition at 10 µM was 99%.

As for `COc1c(C(=O)N2CC3(COC(=O)N3)C2)sc2c(C(F)(F)F)cccc12` [Example 270, 2-((3-methoxy-7-(trifluoromethyl)-1-benzothiophen-2-yl)carbonyl)-7-oxa-2,5-diazaspiro[3.4]octan-6-one], the inhibition at 10 µM in series [2] came to 100%.

On to `O=C1CCC2(CN(C(=O)c3ccc(-c4ccc(C(F)(F)F)c(F)c4)cc3)C2)N1` [Example 45, 2-((3′-fluoro-4′-(trifluoromethyl)biphenyl-4-yl)carbonyl)-2,5-diazaspiro[3.4]octan-6-one], for which the inhibition at 10 µM in series [2] worked out at 97%.

Regarding `O=C1CCC2(CN(C(=O)c3ccc(-c4ccc5c(c4)OCC5)cc3)C2)N1` [Example 74, 2-(4-(2,3-dihydro-1-benzofuran-6-yl)benzoyl)-2,5-diazaspiro[3.4]octan-6-one], the inhibition at 10 µM in series [2] is 95%.

For the molecule `Cc1c(C(F)(F)F)ccc2c(Cl)c(C(=O)N3CCC4(COC(=O)N4)C3)sc12` (stereo not drawn) [Example 337, 7-((3-chloro-7-methyl-6-(trifluoromethyl)-1-benzothiophen-2-yl)carbonyl)-3-oxa-1,7-diazaspiro[4.4]nonan-2-one], the inhibition at 10 µM in series [2] is 100%.

Take `O=C1NC2(CO1)CN(C(=O)c1sc3cc(C4CC4)cc(F)c3c1C1CC1)C2` [Example 312, 2-((3,6-dichloropropyl-4-fluoro-1-benzothiophen-2-yl)carbonyl)-7-oxa-2,5-diazaspiro[3.4]octan-6-one]: the inhibition at 10 µM in series [2] is 101%.
